Source: patent publication US20070060615A1, “Method of Modulating Apoptosis Through Modulation of E2F1” (University of South Florida, priority 2003, published 2007)

Legend:
[1] = test system: H1299 lung carcinoma cells; assay: Apoptosis by Apo-BrdUrd incorporation in H1299 cells; type: cell-based, human
Procedure: (§1) The H1299 non-small cell lung cancer line are grown in DMEM supplemented with 2 mM L-glutamine (Life Technologies, Inc.), 5% fetal bovine serum (Hyclone), and 1% penicillin/streptomycin (Life Technologies, Inc.). NIH3T3 cells constitutively expressing human Mcl-1 were created by transfecting cells with pcDNA-3-Mcl-1 and selecting for transformants in the presence of 400 μg/ml G418. Mouse embryo fibroblasts from E2F1-null animals were grown in DMEM with 15% fetal bovine serum and 1% penicillin/streptomycin. […] The drug was diluted directly into the medium to indicated concentrations followed by incubation at 37° C. Untreated cells and cells treated with DMSO alone behaved identically.
(§2) Apoptosis was assayed using PharMingen “APO-BrdU” kit without modification. After treatment with flavopiridol, cells were trypsinized and resuspended in PBS. Cells were counted and 1-2×10^6 cells were fixed in 1% paraformaldehyde in PBS on ice, pelleted, washed twice in PBS, and fixed with ice-cold 70% ethanol overnight. The next day, cells were pelleted, resuspended, and washed with wash buffer. Pelleted cells were resuspended with reaction buffer, TdT enzyme, and bromo-dUTP for 1 hour at 37° C. Cells were subsequently rinsed with 1.0 ml of PBS and resuspended with fluorescein-labeled anti-BrdUrd in the dark for 30 min at room temperature. Propidium iodide and RNase were added, and the cells were incubated for 30 min. One×10^4 cells per experimental condition were analyzed for fluorescence on a Becton-Dickinson FACScan using Cell Quest software.

wild-type NIH3T3 cells = assay: Apoptosis by Apo-BrdUrd in wild-type NIH3T3 cells; type: cell-based, murine; settings: 200 nM, 48 and 72 hours, FIG. 5C
Procedure: as §2

[2] = test system: E2F1 null mouse embryo fibroblasts; assay: Apoptosis by Apo-BrdUrd in E2F1 null mouse embryo fibroblasts; type: cell-based; settings: 200 nM, 72 hours, FIG. 6C
Procedure: as §1
(§3) Apoptosis was assayed using PharMingen “APO-BrdU” kit without modification. After treatment with flavopiridol, cells were trypsinized and resuspended in PBS. Cells were counted and 1-2×10^6 cells were fixed in 1% paraformaldehyde in PBS on ice, pelleted, washed twice in PBS, and fixed with ice-cold 70% ethanol overnight. The next day, cells were pelleted, resuspended, and washed with wash buffer. Pelleted cells were resuspended with reaction buffer, TdT enzyme, and bromo-dUTP for 1 hour at 37° C. […] One×10^4 cells per experimental condition were analyzed for fluorescence on a Becton-Dickinson FACScan using Cell Quest software.

Bcl-2 = assay: Western blot of Bcl-2 in H1299 cells; type: cell-based, human; settings: H1299, 200 nM
[3] = test system: H1299 cells lacking E2F1 protein; assay: Apoptosis by Apo-BrdUrd in E2F1 knockdown H1299 cells; type: cell-based, human; settings: 200 nM, 48 and 72 h, FIG. 6B
Procedure: (§4) To generate E2F1 knockdown cell lines H1299 cells were transfected by the calcium phosphate method either with empty BS/U6 RNAi vector or with BS/U6-E2F1 RNAi vector together with pcDNA-3, which encodes a neomycin-selectable marker. Forty-eight hours after transfection, cells were split and cultured in medium containing 400 μg/ml G418. Colonies that emerged from G418 selection were propagated and screened for E2F1 expression by Western blot. Several lines were isolated that had reduced E2F1 expression; the most efficient knockdown cell line, H1299-E2F1RNAi-16, was further characterized. A matching H1299-pBS/U6 cell line was generated in the same way.
as §3

human Mcl-1 = assay: Western blot of Mcl-1 in NIH3T3 cells stably expressing human Mcl-1; type: cell-based, murine; settings: 200 nM, up to 72 hours, FIG. 5A
Procedure: as §1, with “identically. Cell lysates were normalized for total protein content (50 μg) and subjected to SDS-PAGE as described previously. Primary antibodies used in these studies consisted of E2F1 (SantaCruz Biotechnology; SC-251), Mcl-1 (Santa Cruz; SC-819), Rb (PharMingen; 14031A), Flag (Sigma; F-3615) and β-actin (Sigma; A5441). Detection of proteins was accomplished using horseradish-peroxidase-conjugated secondary antibodies and enhanced chemiluminescence (ECL) purchased through Amersham. Northern blots were performed as described previously.” for “identically.”

E2F1 = assay: Western blot of E2F1 in H1299 cells; type: cell-based, human
Procedure: as §1, with “identically. Cell lysates were normalized for total protein content (50 μg) and subjected to SDS-PAGE as described previously. Primary antibodies used in these studies consisted of E2F1 (SantaCruz Biotechnology; SC-251), Mcl-1 (Santa Cruz; SC-819), Rb (PharMingen; 14031A), Flag (Sigma; F-3615) and β-actin (Sigma; A5441). Detection of proteins was accomplished using horseradish-peroxidase-conjugated secondary antibodies and enhanced chemiluminescence (ECL) purchased through Amersham. Northern blots were performed as described previously.” for “identically.”

Rb = Rb Western blot (Rb phosphorylation) in H1299 cells; type: cell-based, human; settings: H1299, 200 nM, time course FIG. 3A
Procedure: (§5) Cell lysates were normalized for total protein content (50 μg) and subjected to SDS-PAGE as described previously. Primary antibodies used in these studies consisted of E2F1 (SantaCruz Biotechnology; SC-251), Mcl-1 (Santa Cruz; SC-819), Rb (PharMingen; 14031A), Flag (Sigma; F-3615) and β-actin (Sigma; A5441). Detection of proteins was accomplished using horseradish-peroxidase-conjugated secondary antibodies and enhanced chemiluminescence (ECL) purchased through Amersham. Northern blots were performed as described previously.

Mcl-1 [4] = assay: Western blot of Mcl-1 in H1299 cells; type: cell-based, human
Procedure: as §1, with “identically. Cell lysates were normalized for total protein content (50 μg) and subjected to SDS-PAGE as described previously. Primary antibodies used in these studies consisted of E2F1 (SantaCruz Biotechnology; SC-251), Mcl-1 (Santa Cruz; SC-819), Rb (PharMingen; 14031A), Flag (Sigma; F-3615) and β-actin (Sigma; A5441). Detection of proteins was accomplished using horseradish-peroxidase-conjugated secondary antibodies and enhanced chemiluminescence (ECL) purchased through Amersham. Northern blots were performed as described previously.” for “identically.”

Mcl-1 mRNA = assay: Northern blot of endogenous Mcl-1 mRNA in wild-type NIH3T3 cells; type: cell-based, murine; settings: wild-type 3T3 cells, total RNA, FIG. 5B
Procedure: as §5

[5] = test system: NIH3T3 cells stably expressing human Mcl-1; assay: Apoptosis by Apo-BrdUrd in NIH3T3 cells stably expressing Mcl-1; type: cell-based, murine; settings: 200 nM, 72 hours, FIG. 5C
Procedure: as §1, §3

Mcl-1 [6] = assay: Western blot of Mcl-1 in E2F1 knockdown H1299 cells; type: cell-based, human; settings: E2F1 knockdown H1299, 8 hours, FIG. 6A
Procedure: as §4, §5

[7] = test system: H1299-Mcl-1-11 and H1299-Mcl-1-13 cells; assay: Apoptosis by Apo-BrdUrd in H1299 cells stably expressing human Mcl-1; type: cell-based; settings: 200 nM, 48, 72 and 96 hours, FIG. 4B
Procedure: H1299 cells lines, constitutively expressing human Mcl-1 under control of the CMV promoter, were obtained by transfecting cells with pcDNA3 or pcDNA3-Mcl-1 and selecting for transformants by growth in 400 μg/ml G418. G418-resistant lines were screened for expression of human Mcl-1. Two Mcl-1-positive cell lines emerged and were characterized. A matching G418-resistant H1299-pcDNA3 cell line was generated in the same way. Apoptosis was assayed using PharMingen “APO-BrdU” kit without modification. After treatment with flavopiridol, cells were trypsinized and resuspended in PBS. Cells were counted and 1-2×10^6 cells were fixed in 1% paraformaldehyde in PBS on ice, pelleted, washed twice in PBS, and fixed with ice-cold 70% ethanol overnight. The next day, cells were pelleted, resuspended, and washed with wash buffer. Pelleted cells were resuspended with reaction buffer, TdT enzyme, and bromo-dUTP for 1 hour at 37° C. Cells were subsequently rinsed with 1.0 ml of PBS and resuspended with fluorescein-labeled anti-BrdUrd in the dark for 30 min at room temperature. Propidium iodide and RNase were added, and the cells were incubated for 30 min. One×10^4 cells per experimental condition were analyzed for fluorescence on a Becton-Dickinson FACScan using Cell Quest software.

Bok = assay: Western blot of Bok in H1299 cells; type: cell-based, human; settings: H1299, 200 nM
[8] = H1299, 200 nM, 12 hours, extended time course FIG. 3A
[9] = H1299, increasing doses, 48 hours, FIG. 1A

CN1CC[C@H](c2c(O)cc(O)c3c(=O)cc(-c4ccccc4Cl)oc23)[C@H](O)C1 [flavopiridol]
Apoptosis after 48 and 72 hours ([1]; H1299, 200 nM, 48 and 72 hours, FIG. 3B): larger degrees of apoptosis
Apoptosis after 24 hours ([1]; H1299, 200 nM, 24 hours, FIG. 3B): Minimal levels of apoptosis
Apoptosis at 36 hours ([1]; H1299, 200 nM, 36 hours, FIG. 3B): apoptosis was evident
Apoptosis at times <18 hours ([1]; H1299, 200 nM, <18 hours, FIG. 2B): minimal effect on apoptosis
Apoptosis (Apo-BrdUrd incorporation), dose response ([1]; H1299, 48 hours of treatment, FIG. 1B): minimal elevations in apoptosis, as measured by Apo-BrdUrd incorporation, are seen until a dose of 200 nM was reached
Apoptosis in wild-type NIH3T3 (pcDNA3 alone) (wild-type NIH3T3 cells): undergoes apoptosis starting after 48 hours but is more pronounced after 72 hours of treatment
Apoptosis in mouse embryo fibroblast lines lacking E2F1 compared with wild-type littermates [2]: less sensitive to flavopiridol-induced cell death
Bcl-2 levels (Bcl-2): No changes
Apoptosis in H1299 cells lacking E2F1 compared with empty RNAi vector cells [3]: less sensitive to flavopiridol-induced cell death
Human Mcl-1 protein levels in stably transfected NIH3T3 cells (human Mcl-1): no changes are seen in the levels of Mcl-1
E2F1 levels after 12 hours (E2F1; [8]): E2F1 levels had risen
E2F1 levels after 72 hours (E2F1; H1299, 200 nM, 72 hours, FIG. 3A): E2F1 levels fell
Time after which E2F1 levels reached a plateau (E2F1; H1299, 200 nM, FIG. 2A): 9 h
Time after which increases in E2F1 protein are apparent (E2F1; H1299, 200 nM, FIG. 2A): 3 h
E2F1 protein levels, dose response (E2F1; [9]): markedly elevated starting at the 100-nM dose
Rb phosphorylation (Rb): no changes in Rb phosphorylation
Mcl-1 protein levels at 200 nM and higher doses (Mcl-1 [4]; H1299, 200 nM and higher, 48 hours, FIG. 1A): undetectable
Mcl-1 levels after 12 hours (Mcl-1 [4]; [8]): undetectable
Mcl-1 levels by 36 hours (Mcl-1 [4]; H1299, 200 nM, 36 hours, FIG. 3A): Low levels of Mcl-1 were apparent
Time after which Mcl-1 levels began to fall (Mcl-1 [4]; H1299, 200 nM, FIG. 2A): 3 h
Time after which Mcl-1 levels were maximally reduced (Mcl-1 [4]; H1299, 200 nM, FIG. 2A): 12 h
Mcl-1 protein levels, dose response (Mcl-1 [4]; [9]): significantly reduced starting at the 100-nM dose
Time within which endogenous Mcl-1 levels are reduced (Mcl-1 mRNA): ≤ 6 h
Apoptosis in NIH3T3 stably expressing Mcl-1 [5]: minimal increases in apoptosis
Mcl-1 protein levels in H1299 cells lacking E2F1 (Mcl-1 [6]): decreased in a manner identical to that of the control cells
Apoptosis in stably transfected Mcl-1 clones compared with control cells [7]: resistant to apoptosis induced by flavopiridol
Bok levels (Bok): No changes
